Here are results for 33 molecules from PubChem BioAssay AID977607 (Broad Institute, 2014).

Activity calls are given as the source filed them.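 The calls were made as follows: active = curve reaches 40% activation over neutral controls at an AC40 no higher than the top valid tested concentration; inconclusive = no clear call, values can overlap the other calls; inactive = signal moving opposite to the expected increase, and the rest.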 Where only a bound is given, the exact number is not on record here.

This test deals with INS-1E GLuc insulin secretion reporter, luminescence, 2-3 h. The experiment in a line: GLuc-reported insulin release enhancers, glucose-stimulated beta cells – cell-based, INS-1E, Gaussia luciferase, luminescence, cherry-pick, set 2, dose response (AID 977607).
As for `Cc1ccc(-n2ncc3c(=O)n(CC(=O)Nc4cccc(Cl)c4)cnc32)cc1C`, the AC40 is 6.37 µM.

Consider `CC(C)(C)c1ccc(-c2cc(-c3ccccc3O)[nH]n2)cc1`, for which the AC40 is 6.61 µM.

On to `Cc1nnn(-c2nonc2N)c1C(=O)N/N=C/c1cccc2ccccc12`, for which the AC40 was 7.29 µM.

For the molecule `CC(C)(C)C1CCc2c(sc(NC(=O)c3cccs3)c2C(N)=O)C1` (stereo not drawn), the AC40 was 18.3 µM.

`Cn1c(=O)c2c(nc3n2CCCN3CCc2ccccc2)n(C)c1=O`: the AC40 was > 35 µM (inactive).

Regarding `O=C(Nc1nnc(-c2ccccc2SCc2ccccc2F)s1)Nc1ccccc1F`, the AC40 was 16.7 µM.

Regarding `CCOC(=O)c1oc2ccccc2c1NC(=O)c1cccs1`, the AC40 was 14 µM.

`CS(=O)(=O)N(Cc1ccc(Cl)cc1)c1ccc(C(=O)NCCC2=CCCCC2)cc1`: the AC40 was 13 µM.

Regarding `NC(CCc1ccccc1)c1csc(Nc2ccc(C(F)(F)F)cn2)n1` (stereo not drawn), the AC40 is 10.4 µM.

Take `COc1ccc(C(O)c2nc(-c3ccc(OC)c(OC)c3)cs2)cc1` (stereo not drawn): the AC40 was > 35 µM (inactive).

Turning to `COc1cc2c(cc1OC)-c1cc(Nc3ccc(N(C)C)cc3)nc(=O)n1CC2`, the AC40 was 5.31 µM.

As to `COc1cc2c(cc1OC)/C(=C/C(=O)c1ccc(NC(C)=O)cc1)NCC2`, the AC40 was 14.6 µM.

For `CC(C)(C)S(=O)N1Cc2cc(C(=O)Nc3ccc(-c4ccccc4)cc3)nc(-c3cccc(-c4cccc(F)c4)c3)c2[C@@H]1CCO` (stereo partly drawn), the AC40 was 6.27 µM.

Consider `COc1ccccc1CCn1cnc(-c2ccccc2OC)c1CC(C)C`, for which the AC40 is 14.6 µM.

Turning to `Cc1ccc(/C=N/NC(=O)COc2ccccc2-c2ccccc2)cc1`, the AC40 is 7.03 µM.

On to `COc1cc2ccc(CC(=O)O)cc2cc1OC`, for which the AC40 is 2.69 µM.

For `O=c1c2ccc(F)cc2sn1-c1ccccc1`, the AC40 was 4.2 µM.

Consider `CC(C)CSc1nc2c(c(=O)[nH]c(=O)n2C)n1CCc1ccccc1`, for which the AC40 is 8.81 µM.

In the case of `CC1(Cc2cc(Cl)ccc2C(F)(F)F)C(=O)Nc2cc(C(F)(F)F)ccc21` (stereo not drawn), the AC40 was 34 µM.

Consider `C/C(=N\NC(=O)c1ccc(Cl)c(Cl)c1)c1ccc(Br)s1`, for which the AC40 is 9.32 µM.

On to `COc1ccc(CCn2ccc(O)c(Cc3c(F)cccc3Cl)c2=O)cc1OC`, for which the AC40 was 0.0544 µM.

As to `COc1ccc(C2=NN(C(=O)CCCC(=O)O)C(c3cccs3)C2)cc1OC` (stereo not drawn), the AC40 is 11.6 µM.

For `CN1CCN(C2Cc3ccccc3Sc3cc(C(F)(F)F)ccc32)CC1` (stereo not drawn), the AC40 is 16 µM.

For `Cc1ccccc1NC(=O)c1ccc(OCc2c(C)noc2C)cc1`, the AC40 is > 35 µM (inactive).

As to `c1ccc(-c2nnc3n2-c2ccccc2SC3)cc1`, the AC40 was > 35 µM (inactive).

`CNC[C@H](CC1CCCCC1)NC[C@H](Cc1ccccc1)NCCC12CC3CC(CC(C3)C1)C2`: the AC40 was 8.32 µM.

On to `CCOC(=O)c1ccc(Nc2ncnc3ccc(C)cc23)cc1`, for which the AC40 is 12.4 µM.

`Fc1ccc(/C=N/c2c(-c3ccc(F)cc3)nc3n2CCS3)cc1`: the AC40 was 6.62 µM.

On to `COc1ccc(CN2CCN(Cc3ccccc3F)CC2)cc1`, for which the AC40 was > 35 µM (inactive).

In the case of `COc1ccc(CCNS(=O)(=O)c2cn(C)cn2)cc1OC`, the AC40 is 4.84 µM.

Take `COc1ccc(-c2cnnn2-c2ccc(N)cc2)cc1OC`: the AC40 was > 35 µM (inactive).

As for `NS(=O)(=O)c1ccc(NC(=S)N2CCN(c3ccc(Cl)c(Cl)c3)CC2)cc1`, the AC40 was 9.46 µM.

In the case of `CC1(C(=O)NS(=O)(=O)c2ccccc2Cl)CCN1C(=O)C1(c2ccccc2)CCCC1` (stereo not drawn), the AC40 is 19.3 µM.
